Reference: BindingDB's records for doi:10.3109/14756366.2010.548330 (Metropolitan University-Xochimilco, 2011)

target: T1, cDNA, FLJ78895, highly similar to 3-oxo-5-alpha-steroid 4-dehydrogenase 1 (Homo sapiens, UniProt B7Z4L2); assay: 5α-Reductase Activity Assay; conditions: pH 6.5; 37 °C
T1 sequence (B7Z4L2 whole entry): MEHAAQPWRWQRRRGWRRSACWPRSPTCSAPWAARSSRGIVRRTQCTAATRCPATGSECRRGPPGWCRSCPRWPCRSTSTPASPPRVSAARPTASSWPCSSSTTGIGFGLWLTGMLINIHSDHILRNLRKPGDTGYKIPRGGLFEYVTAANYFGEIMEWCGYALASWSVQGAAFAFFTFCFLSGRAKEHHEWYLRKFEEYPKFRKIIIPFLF
Description: The reaction mixtures contained a final volume of 1 mL, 1 mM DTT, sodium phosphate buffer 40 mM, at pH 6.5, 2 mM, NADPH, 2 nM [1,2,6,7-3H]T or [1,2,3,7-3H(N)] 4-dione and the prostatic enzyme fractions. The amount of prostatic enzyme fractions was determined to adjust the rate of conversion of T to DHT or 4-dione to 5α-dione to around 28%. T, DHT, unlabeled 4-dione or 5α-dione concentrationswere adjusted to 25-250 nM in the incubating medium, by adding one of the following reagents cold T, DHT, unlabeled 4-dione or 5α-dione. The reactions in duplicate were started when added to the enzymatic fraction (400 μg protein in a volume of 80 μL) incubated at 37°C for 60 min13 and stopped by mixing with 1 mL ofdichloromethane. Incubation without tissue was used as a control. All reactions were carried out in two different times by duplicate.

Structure (SMILES)	IC50 [nM]
CC(=O)O[C@]1(C(C)=O)CCC2C3CCC4=CC(=O)CCC4(C)C3CCC21C (some centres not stated) [3,20-Dioxopregn-4-ene-17-yl acetate (4)]	500
CC(=O)[C@@]1(O)CCC2C3CCC4=C(Br)C(=O)CCC4(C)C3CCC21C (stereo partly drawn) [4-Bromo-17α-hydroxypregn-4-ene-3,20-dione (7b)]	1.6
CCc1ccc(C(=O)O[C@]2(C(C)=O)CCC3C4CCC5=C(Cl)C(=O)CCC5(C)C4CCC32C)cc1 (some centres not stated) [4-Chloro-3,20-dioxopregn-4-ene-17-yl-4-ethylbenzoate (8a)]	73
CCc1ccc(C(=O)O[C@]2(C(C)=O)CCC3C4CCC5=C(Br)C(=O)CCC5(C)C4CCC32C)cc1 (some centres not stated) [4-Bromo-3,20-dioxopregn-4-ene-17-yl-4-ethylbenzoate (8b)]	50
CC(=O)[C@@]1(O)CCC2C3CCC4=C(Cl)C(=O)CCC4(C)C3CCC21C (stereo partly drawn) [4-Chloro-17α-hydroxypregn-4-ene-3,20-dione (7a)]	63
CC(=O)[C@@]1(O)CCC2C3CCC4=CC(=O)CCC4(C)C3CCC21C (stereo partly drawn) [17α-Hydroxypregn-4-ene-3,20-dione (5)]	2
CC(C)(C)NC(=O)[C@H]1CC[C@H]2[C@@H]3CC[C@H]4NC(=O)C=C[C@]4(C)[C@H]3CC[C@]12C [4a,6a-Dimethyl-2-oxo-2,4a,4b,5,6,6a,7,8,9,9a,9b,10,11,11a-tetradecahydro-1H-indeno[5,4-f]quinoline-7-carboxylic acid tert-butylamide]	1.3
